From US7943624B2, “Pyridinylpyrazolopyrimidinone derivatives as PDE 7 inhibitors” (Asubio Pharma Co. Ltd., priority 2003, dated 2011)
Values joined by “and” are separate entries in the source; they are usually repeats but may differ in a detail not shown here. Identical values can stand only once.

Target: T1, PDE 7 (phosphodiesterase VII) (Homo sapiens, UniProt Q13946)
T1 construct: filtrated with 0.2 μm filter to obtain the soluble fraction; endogenous in cells; host or cells: MOLT-4 (ATCC CRL-1582); soluble fraction, HiTrap Q eluate at about 350 mM NaCl
Experiment: PDE 7 inhibiting effect (Biological Test 1; 3H-cAMP hydrolysis by PDE 7 fraction from MOLT-4 cells)
Type: biochemical
Details: PDE 7 active fraction from MOLT-4 cells; 0.064 μM cAMP, 10 μM rolipram, 2 hours at 25° C.
Experimental: The PDE 7 (phosphodiesterase VII) inhibiting effect of the compounds of the present invention was performed by the following method, which was modified assay method described in Biochemical. Pharmacol. 48(6), 1219-1223 (1994).
(1) The active fraction of PDE 7 (phosphodiesterase VII) was obtained. That is, MOLT-4 (obtainable from ATCC as ATCC No. CRL-1582), which was cell line of human acute lymphoblastic lymphoma T cells, was incubated in RPMI1640 culture medium containing 10% fetal bovine serum to obtain 5×10^8 MOLT-4 cells. The cells were collected by centrifugation and suspended with 10 mL of buffer solution A 125 mM of tris-HCl, 5 mM of 2-mercaptoethnol, 2 mM of benzamidine, 2 mM of EDTA, 0.1 μM of 4-(2-aminoethyl)benzensulfonyl hydrochloride; pH 7.5], then homogenized by Polytron® homogenizer. The homogenate were centrifuged under 25,000×G for 10 minutes at 4° C. The supernatant was separated and thus obtained supernatant was further centrifuged under 100,000×G for 60 minutes at 4° C., and then filtrated with 0.2 μm filter to obtain the soluble fraction.
(2) The obtained soluble fraction was filled in equilibrium HiTrap Q column (5 mL×2) with buffer solution A, and phosphodiesterase fractions were eluted by 300 mL of buffer solution A with linear gradient from 0 to 0.8 M NaCl concentration. 5 ml each of 60 eluents were collected, and each eluents were examined for cyclic AMP metabolic activities of phosphodiesterase. The fraction eluting with about 350 mM NaCl concentration parts, where metabolic activities were not inactivated by 10 μM of rolipram (selective inhibitor for phosphodiesterase IV) and 10 μM of milrinone (selective inhibitor for phosphodiesterase III), were collected as storage solution for using to test PDE 7 inhibiting effect.
(3) The tested compound having desired concentration was reacted in the solution of 20 mM tris-HCl (pH 7.5), 1 mM of MgCl2, 100 μM of EDTA, 330 μg/mL of bovine serum albumin, 4 μg/mL of 5′-nucleotidase, 0.1 μCi of ^3H-cAMP (0.064 μM of cAMP), 10 μM of rolipram in storage solution of PDE 7 for 2 hours at 25° C. After the reaction, suspension of Sephadex®-QAE in 10 mM of HEPES-Na (pH 7.0) was added to the reaction mixture, and the mixture was left at rest for 5 minutes. Further, Sephadex®-QAE was added to the obtained supernatant and the mixture was leaved at rest for 5 minutes, then, the radioactivity of the solution was measured.
(4) IC50 was calculated as 50% inhibiting concentration of the metabolic activities of phosphodiesterase VII of the tested compound.

T1 sequence (Q13946 whole entry): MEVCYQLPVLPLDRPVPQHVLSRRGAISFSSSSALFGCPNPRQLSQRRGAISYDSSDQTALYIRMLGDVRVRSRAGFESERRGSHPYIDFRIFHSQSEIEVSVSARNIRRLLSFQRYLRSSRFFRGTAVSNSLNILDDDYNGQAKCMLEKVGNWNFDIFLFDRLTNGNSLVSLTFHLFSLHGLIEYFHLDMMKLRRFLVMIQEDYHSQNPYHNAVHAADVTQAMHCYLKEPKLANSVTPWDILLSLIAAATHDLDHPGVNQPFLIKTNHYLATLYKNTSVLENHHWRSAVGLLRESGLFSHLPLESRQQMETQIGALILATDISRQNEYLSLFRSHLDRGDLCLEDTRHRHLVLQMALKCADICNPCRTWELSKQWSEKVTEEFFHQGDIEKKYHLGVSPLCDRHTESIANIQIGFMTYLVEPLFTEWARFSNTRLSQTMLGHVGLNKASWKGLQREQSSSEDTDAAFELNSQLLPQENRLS

Question: For `COc1nc(N2CCN(C)CC2)ccc1-c1nc2c(C)nn(C3CCCCC3)c2c(=O)[nH]1` [Compound 16, 1-Cyclohexyl-5-[2-methoxy-6-(4-methyl-1-piperazinyl)-3-pyridinyl]-3-methyl-1,6-dihydro-7H-pyrazolo[4,3-d]pyrimidin-7-one], which IC50 is on record?
Answer: ≤ 100 nM

Question: For `COc1nc(N2CCOCC2)ccc1-c1nc2c(C)nn(C3CCCCC3)c2c(=O)[nH]1` [Compound 17, 1-Cyclohexyl-5-[2-methoxy-6-(4-morpholinyl)-3-pyridinyl]-3-methyl-1,6-dihydro-7H-pyrazolo[4,3-d]pyrimidin-7-one], which IC50 is on record?
Answer: ≤ 100 nM

Question: For `COc1nc(N2CCCN(C)CC2)ccc1-c1nc2c(C)nn(C3CCCCC3)c2c(=O)[nH]1` [Compound 18, 1-Cyclohexyl-5-[2-methoxy-6-(4-methyl-1,4-diazepan-1-yl)-3-pyridinyl]-3-meth-1-1,6-dihydro-7H-pyrazolo[4,3-d]pyrimidin-7-one], which IC50 is on record?
Answer: ≤ 100 nM

Question: Which IC50 does the source give for `COc1nc(N2CCN(C)CC2)ccc1-c1nc2c(c(C3CCCCC3)nn2C)c(=O)[nH]1` [Compound 20, 3-Cyclohexyl-6-[2-methoxy-6-(4-methyl-1-piperazinyl)-3-pyridinyl]-1-methyl-1,5-dihydro-4H-pyrazolo[3,4-d]pyrimidin-4-one] here?
Answer: ≤ 100 nM

Question: `COc1nc(N2CCOCC2)ccc1-c1nc2c(c(C3CCCCC3)nn2C)c(=O)[nH]1` [Compound 21, 3-Cyclohexyl-6-[2-methoxy-6-(4-morpholinyl)-3-pyridinyl]-1-methyl-1,5-dihydro-4H-pyrazolo[3,4-d]pyrimidin-4-one] was tested. Which IC50 did it give?
Answer: ≤ 100 nM

Question: With `COc1nc(N2CCCN(C)CC2)ccc1-c1nc2c(c(C3CCCCC3)nn2C)c(=O)[nH]1` [Compound 22, 3-Cyclohexyl-6-[2-methoxy-6-(4-methyl-1,4-diazepan-1-yl)-3-pyridinyl]-1-methyl-1.5-dihydro-4H-pyrazolo[3,4-d]pyrimidin-4-one] as the compound, how does the IC50 read?
Answer: ≤ 100 nM

Question: How did the IC50 turn out when `COc1nc(N2CCC(O)CC2)ccc1-c1nc2c(c(C3CCCCC3)nn2C)c(=O)[nH]1` [Compound 25, 3-Cyclohexyl-6-[6-(4-hydroxy-1-piperidinyl)-2-methoxy-3-pyridinyl]-1-methyl-1,5-dihydro-4H-pyrazolo[3,4-d]pyrimidin-4-one] was run?
Answer: ≤ 100 nM

Question: With `CNC1CCN(c2ccc(-c3nc4c(c(C5CCCCC5)nn4C)c(=O)[nH]3)c(OC)n2)CC1` [Compound 26, 3-Cyclohexyl-6-{2-methoxy-6-[4-(methylamino)-1-piperidinyl]-3-pyridinyl}-1-methyl-1,5-dihydro-4H-pyrazolo[3,4-d]-pyrimidin-4-one] as the compound, how does the IC50 read?
Answer: ≤ 100 nM and 2.6 nM

Question: How did the IC50 turn out when `COc1nc(N2CCC(N(C)C)CC2)ccc1-c1nc2c(c(C3CCCCC3)nn2C)c(=O)[nH]1` [Compound 27, 3-Cyclohexyl-6-{6-[4-(dimethylamino)-1-piperidinyl]-2-methoxy-3-pyridinyl}-1-methyl-1.5-dihydro-4H-pyrazolo[3,4-d]-pyrimidin-4-one] was run?
Answer: ≤ 100 nM

Question: How did the IC50 turn out when `COc1nc(N2CCC(N)CC2)ccc1-c1nc2c(c(C3CCCCC3)nn2C)c(=O)[nH]1` [Compound 28, 6-[6-(4-Amino-1-piperidinyl)-2-methoxy-3-pyridinyl]-3-cyclohexyl-1-methyl-1,5-dihydro-4H-pyrazolo[3,4-d]pyrimidin-4-one] was run?
Answer: ≤ 100 nM

Question: How did the IC50 turn out when `COc1nc(N2CCC(NC(C)=O)CC2)ccc1-c1nc2c(c(C3CCCCC3)nn2C)c(=O)[nH]1` [Compound 29, N-{1-[5-(3-Cyclohexyl-1-methyl-4-oxo-4,5-dihydro-1H-pyrazolo[3,4-d]-pyrimidin-6-yl)-6-methoxy-2-piridinyl]-4-piperidinyl}acetamide] was run?
Answer: ≤ 100 nM

Question: For `CNC1CCN(c2ccc(-c3nc4c(C)nn(C5CCCCC5)c4c(=O)[nH]3)c(OC)n2)CC1` [Compound 32], which IC50 is on record?
Answer: ≤ 100 nM and 3.2 nM

Question: For `COc1nc(N2CCC(N(C)C)CC2)ccc1-c1nc2c(C)nn(C3CCCCC3)c2c(=O)[nH]1` [Compound 33], which IC50 is on record?
Answer: ≤ 100 nM

Question: For `COc1nc(S(=O)(=O)N2CCCN(C)CC2)ccc1-c1nc2c(c(C3CCCCC3)nn2C)c(=O)[nH]1` [Compound 36, 3-Cyclohexyl-6-{2-methoxy-6-[(4-methyl-1,4-diazepan-1-yl)sulfonyl]-3-pyridinyl}-1-methyl-1,5-dihydro-4H-pyrazolo[3,4-d]pyrimidin-4-one], which IC50 is on record?
Answer: ≤ 100 nM

Question: With `COc1nc(N2CCC(O)CC2)ccc1-c1nc2c(C)nn(C3CCCCC3)c2c(=O)[nH]1` [Compound 37, 1-Cyclohexyl-5-[6-(4-hydroxy-1-piperidinyl)-2-methoxy-3-pyridinyl]-3-methyl-1,6-dihydro-7H-pyrazolo[4,3-d]pyrimidin-7-one] as the compound, how does the IC50 read?
Answer: ≤ 100 nM

Question: With `CCOc1nc(N2CCN(C)CC2)ccc1-c1nc2c(C)nn(C3CCCCC3)c2c(=O)[nH]1` [Compound 43] as the compound, how does the IC50 read?
Answer: ≤ 100 nM

Question: With `CCOc1nc(N2CCCN(C)CC2)ccc1-c1nc2c(C)nn(C3CCCCC3)c2c(=O)[nH]1` [Compound 44, 1-Cyclohexyl-5-[2-ethoxy-6-(4-methyl-1,4-diazepan-1-yl)-3-pyridinyl]-3-methyl-1,6-dihydro-7H-pyrazolo[4,3-d]pyrimidin-7-one] as the compound, how does the IC50 read?
Answer: ≤ 100 nM

Question: With `CCOc1nc(N2CCC(N(C)C)CC2)ccc1-c1nc2c(C)nn(C3CCCCC3)c2c(=O)[nH]1` [Compound 47, 1-Cyclohexyl-5-{6-[4-(dimethylamino)-1-piperidinyl]-2-ethoxy-3-pyridinyl]-3-methyl-1,6-dihydro-7H-pyrazolo[4,3-d]-pyrimidin-7-one] as the compound, how does the IC50 read?
Answer: ≤ 100 nM

Question: With `CCOc1nc(N2CCC(NC)CC2)ccc1-c1nc2c(C)nn(C3CCCCC3)c2c(=O)[nH]1` [Compound 48, 1-Cyclohexyl-5-{2-ethoxy-6-[4-(methylamino)-1-piperidinyl]-3-pyridinyl}-3-methyl-1,6-dihydro-7H-pyrazolo[4,3-d]pyrimidin-7-one] as the compound, how does the IC50 read?
Answer: ≤ 100 nM

Question: With `CCOc1nc(N2CCC(O)CC2)ccc1-c1nc2c(C)nn(C3CCCCC3)c2c(=O)[nH]1` [Compound 49, 1-Cyclohexyl-5-[2-ethoxy-6-(4-hydroxy-1-piperidinyl)-3-pyridinyl]-3-methyl-1,6-dihydro-7H-pyrazolo[4,3-d]pyrimidin-7-one] as the compound, how does the IC50 read?
Answer: ≤ 100 nM

Target: PDE 4 (phosphodiesterase IV)
Experiment: PDE 4 inhibiting effect (Biological Test 2; 3H-cAMP hydrolysis by PDE 4 fraction from Balb/c mouse liver)
Type: biochemical, mice
Details: PDE 4 active fraction from Balb/c mouse liver; 0.064 μM cAMP, 2 hours at 25° C.
Experimental: The PDE 4 (phosphodiesterase IV) inhibiting effect of the compounds of the present invention was performed by the following method, which was modified assay method described in Biochemical. Pharmacol. 48(6), 1219-1223 (1994).
(1) The active fraction of PDE 4 (phosphodiesterase IV) was obtained. That is, the livers obtained from three Balb/c mice (male, 12 weeks: obtainable from CLEA Japan, Inc.) were suspended with 30 mL of buffer solution B [20 mM of bis-tris, 5 mM of 2-mercaptoethnol, 2 mM of benzamidine, 2 mM of EDTA, 0.1 mM of 4-(2-aminoethyl)benzensulfonyl hydrochloride, 50 mM of sodium acetate; pH 6.5], then homogenized by Polytron® homogenizer. The homogenate were centrifuged under 25,000×G for 10 minutes at 4° C. The supernatant was separated and thus obtained supernatant was further centrifuged under 100,000×G for 60 minutes at 4° C., and then filtrated with 0.2pm filter to obtain the soluble fraction. […]
(3) The tested compound having desired concentration was reacted in the solution of 20 mM tris-HCl (pH 7.5), […], 100 μM of EDTA, 330 μg/mL of bovine serum albumin, 4 μg/mL of 5′-nucleotidase, 0.1 μCi of ^3H-cAMP (0.064 μM of cAMP), and storage solution of PDE 4 for 2 hours at 25° C. […] Further, Sephadex®-QAE was added to the obtained supernatant and the mixture was left at rest for 5 minutes, then, the radioactivity of the solution was measured. […]

Question: With `CNC1CCN(c2ccc(-c3nc4c(c(C5CCCCC5)nn4C)c(=O)[nH]3)c(OC)n2)CC1` [Compound 26, 3-Cyclohexyl-6-{2-methoxy-6-[4-(methylamino)-1-piperidinyl]-3-pyridinyl}-1-methyl-1,5-dihydro-4H-pyrazolo[3,4-d]-pyrimidin-4-one] as the compound, how does the IC50 read?
Answer: 1200 nM

Question: With `CNC1CCN(c2ccc(-c3nc4c(C)nn(C5CCCCC5)c4c(=O)[nH]3)c(OC)n2)CC1` [Compound 32] as the compound, how does the IC50 read?
Answer: 980 nM
